From patent publication US20250017914A1, “6-AZA-QUINOLINE DERIVATIVES AND RELATED USES” (Black Diamond Therapeutics, Inc., priority 2021, published 2025)

Target: T1, BaF3 BRAF-KIAA1549 fusion cells (Homo sapiens, UniProt P15056)
T1 construct: The BRAF-KIAA1549 fusion mutant was subcloned into pMXs-IRES-Blasticidin (RTV-016, Cell Biolabs, San Diego, CA); No tag given; Q9HCM3 (UPF0606 protein KIAA1549)
Test: BaF3 BRAF-KIAA1549 fusion cell proliferation assay (CellTiterGlo, 96 hours)
Type: cell-based
Outline: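 BaF3 cells retrovirally transduced with BRAF-KIAA1549 fusion and blasticidin-selected were plated at 7×10^4 c/well in RPMI, 10% heat-inactivated FBS, 1% L-glutamine, and exposed to compound for 96 hours. Growth was read as ATP content by CellTiterGlo luminescence. IC50 was fitted by Levenberg-Marquardt, normalised to DMSO-treated cells.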

T1 sequence (P15056 whole entry, change not shown, the tested form may be a part): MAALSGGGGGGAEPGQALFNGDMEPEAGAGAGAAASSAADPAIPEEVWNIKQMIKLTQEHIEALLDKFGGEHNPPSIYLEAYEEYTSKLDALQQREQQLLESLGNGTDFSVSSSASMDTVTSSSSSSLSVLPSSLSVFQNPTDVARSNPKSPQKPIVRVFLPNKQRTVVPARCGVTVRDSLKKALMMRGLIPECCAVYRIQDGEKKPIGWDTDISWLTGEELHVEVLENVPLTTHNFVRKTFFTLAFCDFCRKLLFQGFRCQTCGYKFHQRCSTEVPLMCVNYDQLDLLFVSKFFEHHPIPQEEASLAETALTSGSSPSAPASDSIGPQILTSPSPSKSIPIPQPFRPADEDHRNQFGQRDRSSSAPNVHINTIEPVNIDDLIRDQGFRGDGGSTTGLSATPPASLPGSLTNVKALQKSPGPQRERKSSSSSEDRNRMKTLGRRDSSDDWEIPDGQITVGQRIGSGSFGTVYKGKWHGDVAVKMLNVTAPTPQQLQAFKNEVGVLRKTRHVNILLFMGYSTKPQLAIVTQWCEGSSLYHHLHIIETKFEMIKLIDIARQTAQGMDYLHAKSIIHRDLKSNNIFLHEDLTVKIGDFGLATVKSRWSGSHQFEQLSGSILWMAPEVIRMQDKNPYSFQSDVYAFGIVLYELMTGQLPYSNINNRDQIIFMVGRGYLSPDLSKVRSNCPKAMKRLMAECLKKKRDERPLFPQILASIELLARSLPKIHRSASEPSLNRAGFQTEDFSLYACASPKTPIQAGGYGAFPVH

Structure (SMILES)	GI50 (Table A1)	GI50 (Table A2)
CNc1cc2ncc(-c3cc(NC(=O)[C@H](C)n4cnc(C(F)(F)F)n4)ccc3C)cc2cn1 (single isomer, unassigned) [Compound 68]	20 to 100 nM	–
CNc1cc2ncc(-c3cc(NC(=O)c4cc(C(F)F)c(F)cn4)cnc3C)cc2cn1 [Compound 66, 4-(Difluoromethyl)-5-fluoro-N-(6-methyl-5-(7-(methylamino)-1,6-naphthyridin-3-yl)pyridin-3-yl)picolinamide]	20 to 100 nM	–
CNc1cc2ncc(-c3cc(NC(=O)c4cccc(C5(C#N)CC5)c4)cnc3C)cc2cn1 [Compound 191, 3-(1-cyanocyclopropyl)-N-(6-methyl-5-(7-(methylamino)-1,6-naphthyridin-3-yl)pyridin-3-yl)benzamide]	–	20 to 100 nM
CNc1cc2ncc(-c3cc(NC(=O)c4cnc5n4CCCCC5)cnc3C)cc2cn1 [Compound 232, N-(6-methyl-5-(7-(methylamino)-1,6-naphthyridin-3-yl)pyridin-3-yl)-6,7,8,9-tetrahydro-5H-imidazo[1,2-a]azepine-3-carboxamide]	–	100 to 500 nM
CNc1cc2ncc(-c3cc(NC(=O)c4nccc5c4OCCC5O)cnc3C)cc2cn1 (centres unmarked) [Compound 211, 4-hydroxy-N-(6-methyl-5-(7-(methylamino)-1,6-naphthyridin-3-yl)pyridin-3-yl)-3,4-dihydro-2H-pyrano[2,3-c]pyridine-8-carboxamide]	–	≥ 500 nM
